Source: US20190134069A1, “USE OF THYROID BETA-AGONISTS” (priority 2016, published 2019)

Tests used:
[1] = system: X-ALD fibroblast cell lines; assay: Cell health (proliferation, morphology) of X-ALD fibroblasts incubated with compounds; type: cell-based, Human; details: for cell survival (toxicity): 100 μM, both X-ALD cell lines, within 24 hours; for cell health judged by proliferation and morphology: after 72 hours
Protocol: (§1) Human skin fibroblasts were obtained from X-ALD patients through the Neurology Outpatient Clinic of the Academic Medical Center. Written informed consent was received from each patient. X-ALD diagnosis was confirmed by VLCFA and ABCD1 mutation analysis. Control fibroblasts were obtained from male anonymous volunteers with written informed consent. Fibroblasts were cultured in Dulbecco's modified Eagle's medium (DMEM) with L-glutamine and 4.5 g/L glucose, supplemented with 10% fetal calf serum, 2.5 mM HEPES, 100 U/ml penicillin and 100 U/ml streptomycin. Cells were cultured at 37° C. in a humidified 5% CO2 atmosphere. All fibroblast cell lines used were tested routinely for mycoplasma. All tests were negative.
10 mM stock solutions in DMSO were prepared by weighing the amount of compound (1 and 3 and their respective active metabolites, 2 and 4) as indicated in Table 2. Stock solutions were stored at room temperature in the dark. For each incubation, the amount of tissue culture medium needed was calculated and a stock solution of tissue culture medium with the final concentration of the to-be-tested compound was prepared. Tissue culture medium was removed from the cells, cells were washed once with PBS and the tissue culture medium with the compounds was added. If an experiment lasted longer than three days, the tissue culture medium and compounds were refreshed (using a fresh preparation) after three days until the end of the experiment.
Two different X-ALD fibroblast cell lines were incubated in duplicate with four compounds at three dosages as highlighted in Table 3.
4 X-ALD cell lines were incubated with 10 μM of 4 compounds 1, 2, 3, and 4. The effect of treatment on ABCD2 expression was analyzed at day 3 and day 10. For the 10 day incubation, tissue culture medium and compounds were refreshed at day 3 and day 6.

[2] = system: X-ALD cell lines; assay: D3-C26:0 de novo synthesis from D3-C22:0 in intact cells; type: cell-based, Human; details: 10 day treatment, 5 X-ALD cell lines
Protocol: as §1
The effect of treatment on D3-C26:0 synthesis in intact cells. The effect of certain compounds of the invention on the synthesis of D3-C26:0 from D3-C22:0 was measured in cultured skin fibroblasts from controls and X-ALD patients. Cells were seeded at approximately 40% confluency in T75 flasks in DMEM. The next day, medium was replaced with medium containing 30 μM D3-C22:0 and the assayed compounds at their final concentration. […] Each 72 h, the tissue culture medium and compounds was refreshed. At the end of the experiment cells were harvested and VLCFA analyzed as described (Valianpour et al., Molecular Genetics and Metabolism, 79: 189-196 (2003)).
VLCFA were analyzed by electrospray ionization mass spectrometry (ESI-MS) as described (Valianpour et al., Molecular Genetics and Metabolism, 79: 189-196 (2003)).
5 different X-ALD cell lines were incubated for 6 days with compounds 1, 2, 3, and 4 at 10 μM, 5 mM 4PBA (sodium 4-phenylbutyrate), or 0.1 μM sobetirome. On Day 6, 30 μM D3C22:0 was added to assess the effect of treatment on beta-oxidation and de novo D3C26:0 synthesis. 6 untreated control cells as well as 5 different untreated X-ALD cells were included to allow assessment of the treatment effect. The total set consisted of 41 experiments

[3] = system: ABCD1−/− mice; assay: Whole blood VLCFA-LPC levels in in vivo model of X-ALD; details: for Mean blood C26:0-LPC level: once daily IP
Protocol: (§2) Male ABCD1−/− mice were developed using the Taconic 129SvEv background strain. Animals were housed 3-4/cage under a 12-hour lighting cycle (7 AM-7 PM light) and controlled temperature (22° C.) in the rodent facility. They were fed standard mouse chow and had access to drinking water ad libitum. Mice were between 2 and 3 months of age at the beginning of each study.
(§3) Mice were injected once daily intraperitoneal with either drug or vehicle. For blood collection, ˜50 μL of blood was obtained by facial vein puncture using a sterile lancet. Blood was collected in a 1.5 ml microcentrifuge tube containing dried dipotassium EDTA and mixed by gentle inversion at least ten times before storing at −20° C. Blood was obtained in this manner following two, four, and six weeks of treatment. Following blood collection at six weeks, animals were sacrificed by cervical dislocation. Additional blood for preparation of plasma was obtained via cardiac puncture, and blood placed in Microtainer tubes. Brain, spinal cord, adrenal glands, testis, and liver were excised and snap frozen in liquid nitrogen for future analyses.

[4] = system: ABCD1−/− mice; assay: Plasma VLCFA-LPC levels in in vivo model of X-ALD
Protocol: as §2, §3
During the second cohort study, blood was obtained as described in the Methods section. At the six week time point sufficient blood was collected to permit plasma VLCFA analyses at weeks two, four and six. Plasma is considered by many to be a more reliable measurement of VLCFA levels, because of reduced analytical interference from other analytes, as well as reduced variability of the measurements.

[5] = system: X-ALD cell lines; assay: D3-C22:0 (VLCFA) beta-oxidation in intact cells; type: cell-based, Human; details: 10 day treatment, 5 X-ALD cell lines
Protocol: as §1
Peroxisomal beta-oxidation activity was measured essentially as described by incubating cells with 30 μM deuterium-labeled C22:0 (D3-C22:0) (Kemp et al., Clinical Chemistry 50: 1824-1826 (2004)). Cells were seeded at approximately 40% confluency in T75 flasks in DMEM. […] At the end of the experiment cells were harvested and VLCFA analyzed as described (Valianpour et al., Molecular Genetics and Metabolism, 79: 189-196 (2003)).
VLCFA were analyzed by electrospray ionization mass spectrometry (ESI-MS) as described (Valianpour et al., Molecular Genetics and Metabolism, 79: 189-196 (2003)). […]

[6] = second cohort, week 6, p<0.0001

Cc1cc(OC[P@@]2(=O)OCC[C@@H](c3cccc(Cl)c3)O2)cc(C)c1Cc1ccc(O)c(C(C)C)c1 [Compound 1]
cell survival (toxicity) [1]: dead | cell health judged by proliferation and morphology ([1]; 0.1 or 10 μM): looked healthy | reduction in D3C26:0 de novo synthesis ([2]; 10 μM): ~40%

Cc1cc(OCP(=O)(O)O)cc(C)c1Cc1ccc(O)c(C(C)C)c1 [Compound 2]
cell health judged by proliferation and morphology ([1]; 0.1, 1 or 10 μM): looked healthy

Cc1cc(OCP(=O)(OCOC(=O)C(C)(C)C)OCOC(=O)C(C)(C)C)cc(C)c1Cc1ccc(O)c(Cc2ccccc2)c1 [Compound 3]
reduction in whole blood C26:0-LPC levels relative to vehicle controls ([3]; initial cohort, after six week treatment, p<0.0001): 40% | Mean blood C26:0-LPC level ([3]; initial cohort, week 2): 0.262 µM | Mean blood C26:0-LPC level ([3]; initial cohort, week 4): 0.276 µM | Mean blood C26:0-LPC level ([3]; initial cohort, week 6): 0.356 µM | Difference in Mean Change from Baseline, blood C26:0-LPC ([3]; initial cohort, week 2): -0.052 µM | % Difference versus Vehicle, blood C26:0-LPC ([3]; initial cohort, week 2, p NS): 0% | Difference in Mean Change from Baseline, blood C26:0-LPC ([3]; initial cohort, week 4): -0.081 µM | % Difference versus Vehicle, blood C26:0-LPC ([3]; initial cohort, week 4, p NS): −11% | Difference in Mean Change from Baseline, blood C26:0-LPC ([3]; initial cohort, week 6): -0.188 µM | % Difference versus Vehicle, blood C26:0-LPC ([3]; initial cohort, week 6, p<0.0001): −40% | reduction in whole blood C26:0-LPC levels (change from baseline) ([3]; second cohort, daily IP, six weeks of treatment, FIG. 8): approximately 0.11 μM | Least Squares Mean Change from Baseline Whole Blood C26:0-LPC ([3]; second cohort, week 2, p NS versus vehicle): -0.021 µM | Least Squares Mean Change from Baseline Whole Blood C26:0-LPC ([3]; second cohort, week 4, p<0.01 versus vehicle): -0.096 µM | Least Squares Mean Change from Baseline Whole Blood C26:0-LPC ([3]; second cohort, week 6, p<0.005 versus vehicle): -0.12 µM | reduction in C26:0-LPC relative to vehicle-treated animals ([3]; second cohort, whole blood, six weeks, p<0.005): 52% | C20:0-, C22:0-, and C24:0-LPC levels ([4]; after six weeks of treatment): significant reductions | Mean plasma C20:0-LPC level ([4]; second cohort, week 6): 0.76 µM | Mean plasma C22:0-LPC level ([4]; second cohort, week 6): 0.20 µM | Mean plasma C24:0-LPC level ([4]; second cohort, week 6): 1.14 µM | Mean plasma C26:0-LPC level ([4]; second cohort, week 6): 0.20 µM | % Difference vs. Vehicle, plasma C20:0-LPC [4, 6]: −54% | % Difference vs. Vehicle, plasma C22:0-LPC [4, 6]: −43% | % Difference vs. Vehicle, plasma C26:0-LPC [4, 6]: −29% | % Difference vs. Vehicle, plasma C24:0-LPC ([4]; second cohort, week 6, p<0.005): −21% | cell survival (toxicity) [1]: dead | cell health judged by proliferation and morphology ([1]; 0.1 or 10 μM): looked healthy

O=C([O-])CCCc1ccccc1.[Na+] [Compound 4PBA, sodium 4-phenylbutyrate]
VLCFA beta-oxidation restored ([5]; 5 mM): ~50 % of controls | VLCFA (D3C26:0) de novo synthesis ([2]; 5 mM): near normal levels

Cc1cc(OCP(=O)(O)O)cc(C)c1Cc1ccc(O)c(Cc2ccccc2)c1 [Compound 4]
cell health judged by proliferation and morphology ([1]; 0.1, 1 or 10 μM): looked healthy

Cc1cc(OCC(=O)O)cc(C)c1Cc1ccc(O)c(C(C)C)c1 [sobetirome]
effect on VLCFA beta-oxidation ([5]; 0.1 μM): did not show any beneficial effect | effect on VLCFA de novo synthesis ([2]; 0.1 μM): did not show any beneficial effect
